{
  "source": "paper PMC3025038",
  "about": "(Organic & biomolecular chemistry, 2009)",
  "key": {"[1]": {"conditions": "mice; liver, spleen, kidney bone marrow, or brain tissue; cited from earlier work"}, "[2]": {"molecular_target": "T1, KOP receptors (Homo sapiens, UniProt P41145)", "T1 sequence (P41145 whole entry)": "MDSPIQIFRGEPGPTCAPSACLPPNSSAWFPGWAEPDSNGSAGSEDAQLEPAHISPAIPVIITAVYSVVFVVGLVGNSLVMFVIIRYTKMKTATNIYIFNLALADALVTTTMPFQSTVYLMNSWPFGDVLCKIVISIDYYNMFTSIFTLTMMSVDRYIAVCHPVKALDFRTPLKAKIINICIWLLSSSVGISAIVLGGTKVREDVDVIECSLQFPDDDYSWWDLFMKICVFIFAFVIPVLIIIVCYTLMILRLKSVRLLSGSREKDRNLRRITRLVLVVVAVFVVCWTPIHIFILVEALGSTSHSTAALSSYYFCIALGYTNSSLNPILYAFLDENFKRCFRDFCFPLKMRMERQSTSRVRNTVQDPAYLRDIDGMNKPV", "assay": "biochemical", "type": "biochemical", "conditions": "for Emax: read-out: KOP Emax"}, "[3]": {"molecular_target": "T1, KOP receptors", "type": "binding"}},
  "data": [
    {"smiles": "COC(=O)[C@@H]1C[C@H](OC(C)=O)C(=O)[C@H]2[C@@]1(C)CC[C@H]1C(=O)O[C@H](c3ccoc3)C[C@]21C", "note": "[Compound 1, salvinorin A]", "values": [
      {"measurement": "histological differences versus control animals", "setting": "[1]", "value": "no histological differences"}
    ]},
    {"smiles": "COC(=O)[C@@H]1C[C@H](OC(C)=O)C(=O)[C@H]2[C@@]1(C)CC[C@H]1C(=O)O[C@H](C(=O)N3CCSCC3)C[C@]21C", "note": "[Compound 23, (2S,4aR,6aR,7R,9S,10aS,10bR)-methyl 9-acetoxy-6a,10b-dimethyl-4,10-dioxo-2-(thiomorpholine-4-carbonyl)dodecahydro-1H-benzo[f]isochromene-7-carboxylate]", "values": [
      {"measurement": "fold less active than 1 as agonists", "setting": "[2]", "value": "approximately 100 fold"},
      {"measurement": "functional character at KOPs (in words)", "setting": "[2]", "value": "selective partial agonists"},
      {"measurement": "Emax", "setting": "[2]", "value": "57 ± 6", "unit": "%"}
    ]},
    {"smiles": "COC(=O)[C@@H]1C[C@H](OC(C)=O)C(=O)[C@H]2[C@@]1(C)CC[C@H]1C(=O)O[C@H](C(=O)N3CCCCC3)C[C@]21C", "note": "[Compound 21, (2S,4aR,6aR,7R,9S,10aS,10bR)-methyl 9-acetoxy-6a,10b-dimethyl-4,10-dioxo-2-(piperidine-1-carbonyl)dodecahydro-1H-benzo[f]isochromene-7-carboxylate]", "values": [
      {"measurement": "fold increase in affinity for KOP receptors", "setting": "[3]", "value": 9, "unit": "fold"},
      {"measurement": "fold less active than 1 as agonists", "setting": "[2]", "value": "approximately 100 fold"},
      {"measurement": "functional character at KOPs (in words)", "setting": "[2]", "value": "selective partial agonists"},
      {"measurement": "Emax", "setting": "[2]", "value": "85 ± 13", "unit": "%"}
    ]}
  ]
}
